In paper PMC6491832, “Methylobacterium extorquens RSH Enzyme Synthesizes (p)ppGpp and pppApp in vitro and in vivo, and Leads to Discovery of pppApp Synthesis in Escherichia coli” (Frontiers in Microbiology, 2019):
Read-outs that look alike come from different tables or passages of the source.

Tests used:
RelSeq1-385 = target: T1, RelSeq1-385 (Streptococcus dysgalactiae, UniProt Q54089); type: biochemical; conditions: 8 mM ATP, 8 mM GTP, 16 mM MgCl2, 50 mM Tris-HCl pH 8.9, 37 °C, control reaction
T1 construct: gene relA; N-terminal catalytic half, residues 1-385; His8-SUMO tag removed by Ulp1; expressed in E. coli BL21(DE3) Rosetta

purified protein [1] = substrate: Nc1nc2c(ncn2[C@@H]2O[C@H](COP(=O)(O)OP(=O)(O)OP(=O)(O)O)[C@@H](O)[C@H]2O)c(=O)[nH]1; test: purified protein; type: biochemical, Methylorubrum extorquens; conditions: 8 mM ATP, GTP 1-8 mM, 8 mM CoCl2, 50 mM Tris-HCl pH 8.9, 37 °C, 2 h, 80 nM enzyme, pyrophosphate acceptor
purified protein [2] = substrate: Nc1ncnc2c1ncn2[C@@H]1O[C@H](COP(=O)(O)OP(=O)(O)OP(=O)(O)O)[C@@H](O)[C@H]1O; test: purified protein; type: biochemical, Methylorubrum extorquens; conditions: 8 mM GTP, ATP 0.25-2 mM, 8 mM CoCl2, 50 mM Tris-HCl pH 8.9, 37 °C, 2 h, 80 nM enzyme, pyrophosphate donor

T1 sequence (Q54089 1-385): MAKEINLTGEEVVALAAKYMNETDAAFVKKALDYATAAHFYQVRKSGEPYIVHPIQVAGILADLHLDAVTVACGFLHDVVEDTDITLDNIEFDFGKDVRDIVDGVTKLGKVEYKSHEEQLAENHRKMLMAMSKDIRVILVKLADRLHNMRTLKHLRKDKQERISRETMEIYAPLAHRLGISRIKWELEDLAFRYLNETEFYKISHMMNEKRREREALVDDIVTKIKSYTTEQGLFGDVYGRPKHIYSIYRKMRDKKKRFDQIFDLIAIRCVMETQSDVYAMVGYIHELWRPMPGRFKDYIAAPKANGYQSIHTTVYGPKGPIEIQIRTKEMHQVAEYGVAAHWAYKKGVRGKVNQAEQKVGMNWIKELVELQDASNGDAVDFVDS

Q: `Nc1ncnc2c1ncn2[C@@H]1O[C@H](COP(=O)(O)OP(=O)(O)OP(=O)(O)O)[C@@H](O)[C@H]1O` [ATP] was tested. Which “pppGpp synthesis from [33P]gamma-ATP, two-dimensional TLC” value (RelSeq1-385; pyrophosphate donor) did it give?
A: Its value is “ATP + GTP with RelSeq1-385 (to visualize pppGpp)”.

Q: For `Nc1nc2c(ncn2[C@@H]2O[C@H](COP(=O)(O)OP(=O)(O)OP(=O)(O)O)[C@@H](O)[C@H]2O)c(=O)[nH]1` [GTP], which “pppGpp synthesis from [33P]gamma-ATP, two-dimensional TLC” value (RelSeq1-385; pyrophosphate acceptor) is on record?
A: The value was “ATP + GTP with RelSeq1-385 (to visualize pppGpp)”.

B1: RSHMex1-352 (Methylorubrum extorquens AM1) (protein)
chain: MMRQYELVERVKRYNPAANEALLNRAYVYAMRAHGTQKRASGDPFFAHPLEVAAILTDLRLDDATIVAAVLHDTVEDTAATLDEIREIFGPEIGALVDGLTKLKRLDLVSKRAVQGENFRKLLLAVAEDVRVLLVKLADRLHNMRTLHFMRDDKRARIAEETLDIYAPLAGRMGMQELRDELEDLSFRTLKPEVYATITKRLEDLSAKSGSVIESIEHDLTARLAARGIAAHVKGRLKKPFSIWSKMERKSVAFEQLSDIVGFRVIVGTLAECYAALGVVHTSWPMVPGRYKDYVSTPKQNDYRSIHTTVIGPKRQRVELQIRTAEMDEIAEYGIAAHAHYKEAGKEGVEGE
notes: N-terminal catalytic half (hydrolase + synthetase domains, residues 1-352), CTD regulatory domain omitted; His8-SUMO tag removed by Ulp1; expressed in E. coli BL21(DE3) Rosetta
Q: Which results are given for B1?
A: Km (purified protein [1]): 3000 ± 290 µM; Km (purified protein [2]): 390 ± 10 µM
